The text below walks through data of US12070471B2, “Remote loading of sparingly water-soluble drugs into lipid vesicles” (CELATOR PHARMACEUTICALS, INC., priority 2014, dated 2024).

The nature of series [1]: Remote loading of taxane derivative precipitates into liposomes. Type of series: physicochemical. The method, then: Liposomes were prepared using the extrusion and purification method described in Example 1. The lipid composition was POPC/cholesterol (3/0.5, mol/mol). The trapping agent consisted of zinc acetate or magnesium acetate at 120 mM. A solution of either unmodify carbazitaxel or 2′succinylcarbazitaxel in DMSO at 20 mg/mL was added to the liposome solution slowly over 30 seconds while vortexing to produce a drug precipitate in the liposome solution. The target drug to phospholipid ratio was 100 g/mole lipid for unmodified carbazitaxel and 100, 150 or 200 g for succinylcarbazitaxel/mol phospholipid. The solutions are heated for 30 min at 45° C. and then cooled on ice. A sample was removed to determine the input drug to lipid ratio and the remaining solution was spun in a centrifuge at 12,000 RPM for 5 minutes to pellet any unloaded drug. The supernatant was further purified from unloaded drug using a Sephadex G25 size exclusion column eluted with 5 mM HEPES, 145 mM NaCl at pH 6.5. The purified liposomes were analyzed for drug and lipid content by HPLC as described in Example 16.
To encapsulate the 2′ morpholine-4-ylethyl amide of succinylcabazitaxel, liposomes were prepared with a lipid composition of HSPC/DSPG/Chol/PEG-DSPE in the ratio 2/0.6/2/0.3 containing 1.0 M (SO4) TEA dextran sulfate. The liposomes were separated form the non-entrapped TEA dextran sulfate by anion exchange and then by dialysis against 5 mM Hepes buffered 10% (wt/wt) sucrose, pH 6.5. 2′ morpholine-4-ylethyl amide of succinylcabazitaxel was dissolved in DMSO at 10 mg/mL.
In a typical preparation, the DMSO 2′ morpholine-4-ylethyl amide of succinylcabazitaxel solution was added dropwise to the liposomes at room temperature while the liposomes suspension was rapidly mixed on a vortex mixer. […] The purified liposomes were analyzed for drug and lipid content by HPLC as described in Example 16. […]

The nature of series [2]: Remote loading of amphotericin B precipitate into TEA dextran sulfate liposomes. Type of series: physicochemical. As to the method: Liposomes were prepared with a lipid composition of HSPC/DSPG/Chol/PEG-DSPE in the ratio 2/0.6/2/0.3 containing 1.0 M (SO4) TEA dextran sulfate. The liposomes were separated form the non-entrapped TEA dextran sulfate by anion exchange and then by dialysis against 5 mM Hepes buffered 10% (wt/wt) sucrose pH 6.5. The liposomes were exchanged into 0.01 N HCL, 10% sucrose pH 2.0 before drug loading. Amphotericin B was dissolved in DMSO at 10 mg/ml.
In a typical preparation, the DMSO amphotericin B solution was added dropwise to the liposomes at room temperature while the liposomes suspension was rapidly mixed on a vortex mixer. The concentration of the liposomal lipid was 5 umol (phospholipid)/mL and 0.1 mL of the amphotericin B solution was added per mL of liposomes so that the final amphotericin B concentration was about 1.0 mg/ml AmB and the final DMSO concentration was about 10% (V/V). By adjusting the amount of liposomes in the preparation various AmB/PL ratios were tested, e.g., 200, 400, 800 g/mol.
The samples were heated at 65° C. for 15 min. Then cooled on ice for 30 minutes. The preparation was then passed through a PD10 (Sephadex G25) gel filtration column to remove any precipitated amphotericin B that was not incorporated into the liposome. […] The diameter of the drug loaded liposomes was not changed at the 200 and 400 g drug/mole lipid input ratio and were slighted larger circa 10% in the 800 g drug lipid ratio. The purified liposomes were analyzed for drug and lipid content by the HPLC method as described in Example 1.

Series [3] in a line: Drug precipitate loading followed by light scattering at 600 nm. Type of series: physicochemical. As to the method:
Liposomes containing 250 mM ammonium sulfate as trapping agent and 250 mM sodium sulfate as control liposomes which would not remote load drug. The liposomes were prepared and loaded using the procedure described in Example 1 except a disposable polystyrene cuvette was used as the reaction vessel. The scattering of light at 600 nm was measured with a UV/vis spectrophotometer during the loading process.

The nature of series [4]: Carfilzomib solubility as a function of DMSO content (optical density at 600 nm). Type of series: physicochemical. The note with it: 0.2 mg/mL. As to the method: Carfilzomib was added from a stock 10 mg/mL solution in DMSO to 1 mL of a citric acid/DMSO mixture so that the composition of DMSO was 2%, 25%, 50%, 75% and 100%. The final drug concentration was 0.2 mg/mL. The solutions were prepared and measured for optical density at 600 nm. The optical density at 600 nm is a good measure of how turbid or how much scattering material (such as drug precipitates) are in a solution, generally, the more precipitates the higher the absorbance. From FIG. 8 is apparent that at DMSO concentrations below 50% vol/vol (25° C.) and 25% vol/vol (65° C.) the drug remains in a precipitated form. Only when the concentration of DMSO is increased does it become effectively solubilized at this concentration of 0.2 mg/mL.

For series [5] the following is noted: elimination in the blood stream, unencapsulated drug; cited from earlier work.
Series [6] can be described thus: Reverse gradient-directed drug release from liposomes. Type of series: physicochemical. The method, then: Liposomes were loaded with carfilzomib as described in Example 1 and were purified into deionized water. The sample was divided into two aliquots. To the first aliquot, concentrated Hepes pH 7.4 and NaCl was added so that the final concentration was 5 mM Hepes, 145 mM NaCl (HBS). To the second aliquot, concentrated ammonium sulfate was added so that the final concentration was 250 mM. No obvious physical changes were initially observed. The samples were then heated at 65° C. for 30 min. The samples were transferred to clean eppendorf tubes and centrifuged for 10,000 rpm for 5 min after which the supernatants and precipitates were separated and tested for carfilzomib content by HPLC assay. Released drug precipitated, liposome encapsulated drug remained in the supernatant. The % carfilzomib released was calculated by […]

Series [7] in a line: Carfilzomib liposome entrapment by remote loading from precipitate (drug and lipid by HPLC after purification). The class given is physicochemical. As to the method: Ammonium sulfate solution was prepared by dissolving ammonium sulfate solid to a final concentration of 250 mM (500 mequivilents of anion/L) no pH adjustment was made to yield a final pH of 5.6. Sodium sulfate solution (250 mM) was prepared by adding 0.35 g sodium sulfate to 10 mL deionized water.
The liposomes were formed by extrusion. Lipids were dissolved in ethanol at a concentration of 500 mM HSPC (591 mg/mL total lipid) at 65° C. and the 9 volumes of the trapping agent solution heated to 65° C. was added to the ethanol/lipid solution also at 65° C. The mixture was vortexed and transferred to a 10 mL thermostatically controlled (65° C.) Lipex Extruder. The liposomes were formed by extruding 10 times through polycarbonate membranes having 0.1 um pores. After extrusion the liposomes were cooled on ice. The transmembrane electrochemical gradient was formed by purification of the liposomes by dialysis in dialysis tubing having a molecular weight cut off of 12,000-14,000. […] The conductivity of the liposome solution was measured and was indistinguishable from the dialysis medium ˜40 μS/cm.
The lipid concentration is determined by measuring the cholesterol by HPLC using an Agilent 1100 HPLC with and Agilent Zorbax 5 um, […], Eclipse XDB-C8 column and a mobile phase of A=0.1% TFA, B=0.1% TFA/MeOH with an isocratic elution of 99% B. The flow rate is 1.0 mL/min, column temperature is 50° C., 10 μL injection and detection by absorbance at 205 nm. […] The liposome size is measured by dynamic light scattering.
Carfilzomib (Selleck Chemicals) was dissolved in DMSO at a concentration of 10 mg/mL. […] The supernatants were purified on a Sephadex G25 column collected and analyzed by HPLC. […] The mobile phase consists of A=0.1% TFA, B=0.1% TFA/MeOH with a gradient elution starting at 50% B and increasing to 83% B in 13 min with 7 min equilibration back to 50% B. The flow rate is 1.0 mL/min, column temperature is 30 C, 10 μl injection and detection by absorbance at 205 nm. […] The lipid concentration is determined by analysis of the cholesterol by HPLC. […]

In the case of `CO[C@H]1C(=O)[C@]2(C)[C@@H](OC)C[C@H]3OC[C@@]3(OC(C)=O)[C@H]2[C@H](OC(=O)c2ccccc2)[C@]2(O)C[C@H](OC(=O)[C@H](OC(=O)CCC(=O)O)[C@@H](NC(=O)OC(C)(C)C)c3ccccc3)C(C)=C1C2(C)C` [2′ succinylcabazitaxel, 2′-succinylcarbazitaxel], the loading efficacy entry in series [1] (POPC/cholesterol liposomes with zinc acetate or magnesium acetate 120 mM, 45 C 30 min) is listed as “greater than 85%”.

Turning to `C[C@@H]1[C@H](O)[C@@H](C)/C=C/C=C/C=C/C=C/C=C/C=C/C=C/[C@H](O[C@@H]2O[C@H](C)[C@@H](O)[C@H](N)[C@@H]2O)C[C@@H]2O[C@](O)(C[C@@H](O)C[C@@H](O)[C@H](O)CC[C@@H](O)C[C@@H](O)CC(=O)O[C@H]1C)C[C@H](O)[C@H]2C(=O)O` [Amphotericin B], the “amphotericin B concentration to which final liposome preparation was readily concentrated” value in series [2] (5 mM Hepes, 144 mM NaCl, pH 7.4 buffer) is 10 mg/mL. Also, in series [2] (200 and 400 g drug/mole lipid input ratio), the “diameter of the drug loaded liposomes” value is “not changed”. Besides, in series [2] (800 g drug lipid ratio), the “increase of diameter of the drug loaded liposomes” value is recorded as “circa 10%”. This compound also registered a remote loading efficiency in series [2] (input 200 g drug/mole lipid) of 96%. Further, in series [2] (input 400 g drug/mole of lipid), the “drug content of purified preparation” value was 360 g amphotericin B/mole lipid and the encapsulated result is “about 90%”. Further, in series [2] (input 800 g drug/mole lipid), the “drug content of purified preparation” value is given as 560 g amphotericin B/mole lipid and the encapsulated entry is listed as “about 70%”.

On to `CO[C@H]1C(=O)[C@]2(C)[C@@H](OC)C[C@H]3OC[C@@]3(OC(C)=O)[C@H]2[C@H](OC(=O)c2ccccc2)[C@]2(O)C[C@H](OC(=O)[C@H](O)[C@@H](NC(=O)OC(C)(C)C)c3ccccc3)C(C)=C1C2(C)C` [cabazitaxel], for which the efficiency of loading result in series [1] (100 g carbazitaxel/mol phospholipid, calcium acetate and magnesium acetate liposomes (so in the source)) is on record as “very low”. Also, in series [1] (TEA-dextran sulfate liposomes), the “encapsulation, % of the added drug” value is recorded as below 5%.

On to `CC(C)C[C@H](NC(=O)[C@H](CCc1ccccc1)NC(=O)CN1CCOCC1)C(=O)N[C@@H](Cc1ccccc1)C(=O)N[C@@H](CC(C)C)C(=O)[C@@]1(C)CO1` [carfilzomib], for which the “time to clarification of the solution during loading” value in series [3] (ammonium sulfate liposomes) is reported as at most 15 min. Further, the “clarification of the precipitate during loading” value in series [3] (sodium sulfate liposomes) is listed as “do not show any clarification”. Also, the figures for the “DMSO concentration at which the drug remains in a precipitated form” value in series [4] (25 C) and in series [4] (65 C) were “below 50 % vol/vol” and below 25 % vol/vol, respectively. The t1/2 in series [5] was below 20 min. In addition, in series [6], the “drug released with reverse gradient relative to control with no reverse gradient” value was found to be 6.5 fold. In series [6] (after loading and reverse gradient release), the “degradation of released drug (HPLC chromatogram vs starting material)” value is recorded as “no degradation”. Moreover, the “loading capacity of remote loaded liposomes relative to sodium sulfate liposomes” value in series [7] (ammonium sulfate vs sodium sulfate liposomes) was above 3 fold. Also, in series [7] (delay up to 12 h), the “impact of delay between precipitate formation and loading on loading efficiency” value was “does not have a significant impact”. In series [7] (triethylammonium sulfate gradient (500 mM), input 650 g drug/mol HSPC, 30 min, 10% DMSO), this compound came in with a greatest payload of 440±12.6 g drug/mol HSPC.
